Paper PMC5920109, “Identification, Expression, and Regulation of an Omega Class Glutathione S-transferase in Rhopalosiphum padi (L.) (Hemiptera: Aphididae) Under Insecticide Stress” (Frontiers in Physiology, 2018)

Target: T1, RpGSTO1 (Rhopalosiphum padi, UniProt A0A2U9PFG6)
T1 construct: pET-28a His-tag (tag removal not mentioned), E. coli BL21(DE3), BamHI/HindIII
T1 sequence (A0A2U9PFG6 1-239): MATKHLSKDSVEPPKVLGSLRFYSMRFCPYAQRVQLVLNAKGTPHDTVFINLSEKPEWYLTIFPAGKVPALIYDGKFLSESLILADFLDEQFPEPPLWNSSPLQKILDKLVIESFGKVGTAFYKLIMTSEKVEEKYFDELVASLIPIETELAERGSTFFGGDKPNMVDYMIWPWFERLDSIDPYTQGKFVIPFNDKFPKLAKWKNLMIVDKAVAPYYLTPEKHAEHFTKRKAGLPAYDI
Assay: spectrophotometric GSH conjugation at […] nm, double reciprocal plot
Assay type: biochemical
Details: 5 mM GSH; 0.02-0.14 mM CDNB; pH 7.0, 0.1 M sodium phosphate

Compound `O=[N+]([O-])c1ccc(Cl)c([N+](=O)[O-])c1` [CDNB, 1-chloro-2,4-dinitrobenzene] has a Km of 120 µM.
